For series [1] the following is noted: for average flux: 16 mg/mL. As to the method: A franz diffusion cell is obtained and prepared.
If testing films, one can perform the following next steps: (1) weigh films, punch to match diffusion area (or smaller), reweigh, record pre- and post-punching weight; (2) wet a donor area with approximately 100 μL of phosphate buffer; (3) place film on a donor surface, top with 400 μL of phosphate buffer, and start timers.
The tissue is dermatomed to precise thickness. • 4. […] The media is selected to ensure sink conditions. • 5.
The study compared concentrations of 4 mg/mL, 8 mg/mL, 16 mg/mL and 100 mg/mL. […]

For series [2] the following is noted: PBS (pH 7.4), 37°±1° C., n=6; cited from earlier work.
The conditions of series [3]: in vivo. On the procedure:
The study compared various dose routes: sublingual (SL), per oral tablet (PO), subcutaneous (SC) and intravenous (IV). […] An Oral Irritation assessment was performed (SL film group): Predose (0) and 24 hr postdose by Draize scoring.

Where two headings read alike, the source gives them in different places.

As for `CNC[C@H](O)c1ccc(O)c(O)c1` [Epinephrine Bitartrate], the “permeation as a function of solution pH” value in series [1] was “slightly more favorable”. The average flux in series [1] (30 min) turned out to be 0 μg/cm^2*min; in series [1] (45 min), 0.2604 μg/cm^2*min; in series [1] (60 min) it was 0.3125 μg/cm^2*min; in series [1] (120 min), 0.6727 μg/cm^2*min; in series [1] (180 min), 1.076 μg/cm^2*min; in series [1] (240 min), 1.029 μg/cm^2*min. Also, the average flux is listed as 1.25 μg/cm^2*min in series [1] (300 min) and 1.385 μg/cm^2*min in series [1] (360 min).

Take `CC(C)NCC(O)COc1cccc2ccccc12` (stereo not drawn) [PP]: in series [2], the “concentration of saturated solution (C0)” value was 588005 ± 5852 µg/mL.

As for `CNC[C@H](O)c1ccc(OC(=O)C(C)(C)C)c(OC(=O)C(C)(C)C)c1` (racemic) [Dipivefrin, dipivefrin], in series [3], the “% Bioavailability, DIPI AUC0-t” value worked out at 128.5% and the “% Bioavailability, EPI AUC0-t” value worked out at 131.0%.

(Values after patent publication US20250108017A1 (Aquestive Therapeutics, Inc., priority 2023, published 2025).)
